This note sets out measurements from patent US20150291593A1, “NOVEL HETEROARYL AND HETEROCYCLE COMPOUNDS, COMPOSITIONS AND METHODS” (HUTCHISON MEDIPHARMA LIMITED, priority 2012, published 2015).

The target of assay [1] is T1, p110δ/p85α (Homo sapiens, UniProt O00329).
T1 construct: purchased Invitrogen
The experiment in a line: Transcreener KINASE Assay, kinase inhibition of p110δ/p85α. In kind it is biochemical. Conditions: for pIC50: read-out: PI3Kδ IC50. How it is done: (§1) PI3K kinases including p110α/p85α, p110δ/p85α and p110γ are purchased from Invitrogen, and p110β/p85α is from Millipore.
(§2) Primary screening data and IC50 values are measured using Transcreener™ KINASE Assay (Bellbrook, Catalog #3003-10K). […] It is a universal, homogenous, high throughput screening (HTS) technology using a far-red, competitive fluorescence polarization immunoassay based on the detection of ADP to monitor the activity of enzymes that catalyze group transfer reactions. Briefly, the Transcreener KINASE Assay is designed as a simple two-part, endpoint assay.
(§3) In the first step, the 25 ul kinase reaction is performed by preparing a reaction mixture containing 5 ul test compound (2% DMSO final concentration), 10 ul kinase, buffer (50 mM HEPES, 100 mM NaCl, 1 mM EGTA, 0.03% CHAPS, 3 mM MgCl2, and freshly supplemented 1 mM DTT), and 10 ul 30 uM PIP2/10 uM ATP. The plate is sealed and incubated for 80 min at room temperature. Next, 25 ul ADP detection mix is added per well. The plate is sealed again and incubated for 60 min at room temperature, and then measure fluorescence polarization by Tecan Infinite F500 Reader.
(§4) Data is analyzed and IC50s are generated using the add-in software for Microsoft Excel, Xlfit™ (version 2.0). IH %=(ADP amount under 2% DMSO-ADP amount under test compound)/ADP amount under 2% DMSO.

In assay [2] the target is T2, PI3Kγ (Mus musculus, UniProt Q9JHG7).
T2 construct: endogenous in cells; host or cells: Raw264.7 macrophage cells
The experiment in a line: Acumen Assay - Raw264.7 p-AKT Assay (C5a stimulated). Conditions: Raw264.7 macrophage cells, compound 30 min, 10 nM C5a 5 min, p-AKT (Ser473) readout; read-out: PI3Kγ cell-C5a Raw264.7 IC50. It is filed as cell-based. The protocol:
Acumen® eX3 (A Mμltilaser Microplate Cytometer For Enhanced High Content Screening): TTP LabTech
3×10^4 Raw264.7 macrophage cells were seeded into 96-well plates with DMEM+10% heat-inactivated FBS at […], 90 ul/well, overnight. After starvation for 3 hr at 37° C. under 5% CO2, Raw264.7 cells were treated with 10 ul/well various concentrations of compound or 0.5% DMSO for 30 min, and then stimulated with 10 ul/well 10 nM C5a for 5 min.
1.) Cells were fixed 110 μL of 4% pre-warmed Paraformaldehyde (2% final), incubate for 45 min at room temperature.
2.) Remove paraformaldehyde solution. Add 100 μL of ice-cold 0.1% Triton X-100 in PBS and leave at 4° C. for 30 min.
3.) Wash once in 100 μL PBS.
4.) Incubate with 100 μL blocking buffer (1% BSA, in PBS) for 2 hours at room temperature.
5.) Wash once for 5 min with 100 ul PBS.
6.) Incubate with 40 μL 1:200 dilution of phospho AKT (Ser473) rabbit antibody in antibody dilution buffer (0.1% BSA, in PBS) overnight at 4° C.
7.) Wash for 3 times for 10 min with 100 ul PBS.
8.) Incubate for 90 min at room temperature with 50 μL of goat anti-rabbit Alex488 antibody at a 1:1,000 dilution in antibody dilution buffer (0.1% BSA, in PBS). Cover plate in foil to keep out of light.
9.) Wash for 3 times for 10 min with 100 μL PBS.
10.) Add 50 μL of 1.5 μM Propidium Iodide solution to each well to determine cell number at a 1:1,000 dilution in PBS (stock: 1.5 mM).
11.) Incubate at room temperature for 30 min.
12.) Seal the plate with a black cover-seal (supplied with plate).
13.) Load the plate into the Acumen Explorer and scan with the appropriate instrument settings.

The target of assay [3] is T3, p110γ (Homo sapiens, UniProt P48736).
T3 construct: purchased Invitrogen
In words: Transcreener KINASE Assay, kinase inhibition of p110γ. In kind it is biochemical. Conditions: for pIC50: read-out: PI3Kγ IC50. How it is done:
PI3K kinases including p110α/p85α, p110δ/p85α and p110γ are purchased from Invitrogen, and p110β/p85α is from Millipore. Primary screening data and IC50 values are measured using Transcreener™ KINASE Assay (Bellbrook, Catalog #3003-10K). […] It is a universal, homogenous, high throughput screening (HTS) technology using a far-red, competitive fluorescence polarization immunoassay based on the detection of ADP to monitor the activity of enzymes that catalyze group transfer reactions. Briefly, the Transcreener KINASE Assay is designed as a simple two-part, endpoint assay. […] The plate is sealed and incubated for 80 min at room temperature. Next, 25 ul ADP detection mix is added per well. The plate is sealed again and incubated for 60 min at room temperature, and then measure fluorescence polarization by Tecan Infinite F500 Reader. Data is analyzed and IC50s are generated using the add-in software for Microsoft Excel, Xlfit™ (version 2.0).

The target in assay [4] is T4, p110α/p85α (Homo sapiens, UniProt P42336).
T4 construct: purchased Invitrogen
In words: Transcreener KINASE Assay, kinase inhibition of p110α/p85α. In kind it is biochemical. How it is done: as §1, §2, §3, §4

In assay [5] the target is T5, p110β/p85α (Homo sapiens, UniProt P42338).
T5 construct: purchased Millipore
In words: Transcreener KINASE Assay, kinase inhibition of p110β/p85α. It is filed as biochemical. Conditions: for pIC50: read-out: PI3Kβ IC50. The protocol: as §1, §2, §3, §4

pIC50: −log10 of the molar value. A value given as a limit tells only on which side of the number the result lay.

T4 sequence (P42336 whole entry, species assumed): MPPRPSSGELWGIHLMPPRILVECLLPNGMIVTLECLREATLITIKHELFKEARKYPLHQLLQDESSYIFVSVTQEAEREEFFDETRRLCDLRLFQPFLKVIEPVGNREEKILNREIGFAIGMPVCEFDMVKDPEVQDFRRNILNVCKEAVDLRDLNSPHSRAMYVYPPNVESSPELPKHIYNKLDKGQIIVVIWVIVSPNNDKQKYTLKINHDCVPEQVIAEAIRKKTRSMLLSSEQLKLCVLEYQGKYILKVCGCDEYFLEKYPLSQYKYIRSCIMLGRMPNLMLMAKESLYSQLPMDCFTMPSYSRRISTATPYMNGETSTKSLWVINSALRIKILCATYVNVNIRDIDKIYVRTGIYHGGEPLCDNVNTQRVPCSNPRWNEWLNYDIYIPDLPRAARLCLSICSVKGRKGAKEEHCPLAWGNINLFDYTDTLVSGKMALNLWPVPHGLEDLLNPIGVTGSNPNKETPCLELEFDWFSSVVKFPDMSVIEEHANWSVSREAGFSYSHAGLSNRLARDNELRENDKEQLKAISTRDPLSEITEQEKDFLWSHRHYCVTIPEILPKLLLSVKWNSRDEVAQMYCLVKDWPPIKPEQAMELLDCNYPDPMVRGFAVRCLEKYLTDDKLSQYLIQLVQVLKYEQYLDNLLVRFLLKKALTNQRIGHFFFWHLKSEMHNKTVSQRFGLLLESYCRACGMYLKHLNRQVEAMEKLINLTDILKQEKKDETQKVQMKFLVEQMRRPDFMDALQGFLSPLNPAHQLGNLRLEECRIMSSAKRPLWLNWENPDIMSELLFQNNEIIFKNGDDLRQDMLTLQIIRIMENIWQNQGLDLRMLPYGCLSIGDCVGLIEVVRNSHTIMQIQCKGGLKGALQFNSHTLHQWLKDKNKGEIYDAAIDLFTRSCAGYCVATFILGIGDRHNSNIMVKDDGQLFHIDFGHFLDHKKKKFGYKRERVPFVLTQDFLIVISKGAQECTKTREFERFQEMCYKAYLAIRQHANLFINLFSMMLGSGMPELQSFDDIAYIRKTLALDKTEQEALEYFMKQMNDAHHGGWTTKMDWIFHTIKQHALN
T4 sequence (P27986 whole entry partner, species assumed): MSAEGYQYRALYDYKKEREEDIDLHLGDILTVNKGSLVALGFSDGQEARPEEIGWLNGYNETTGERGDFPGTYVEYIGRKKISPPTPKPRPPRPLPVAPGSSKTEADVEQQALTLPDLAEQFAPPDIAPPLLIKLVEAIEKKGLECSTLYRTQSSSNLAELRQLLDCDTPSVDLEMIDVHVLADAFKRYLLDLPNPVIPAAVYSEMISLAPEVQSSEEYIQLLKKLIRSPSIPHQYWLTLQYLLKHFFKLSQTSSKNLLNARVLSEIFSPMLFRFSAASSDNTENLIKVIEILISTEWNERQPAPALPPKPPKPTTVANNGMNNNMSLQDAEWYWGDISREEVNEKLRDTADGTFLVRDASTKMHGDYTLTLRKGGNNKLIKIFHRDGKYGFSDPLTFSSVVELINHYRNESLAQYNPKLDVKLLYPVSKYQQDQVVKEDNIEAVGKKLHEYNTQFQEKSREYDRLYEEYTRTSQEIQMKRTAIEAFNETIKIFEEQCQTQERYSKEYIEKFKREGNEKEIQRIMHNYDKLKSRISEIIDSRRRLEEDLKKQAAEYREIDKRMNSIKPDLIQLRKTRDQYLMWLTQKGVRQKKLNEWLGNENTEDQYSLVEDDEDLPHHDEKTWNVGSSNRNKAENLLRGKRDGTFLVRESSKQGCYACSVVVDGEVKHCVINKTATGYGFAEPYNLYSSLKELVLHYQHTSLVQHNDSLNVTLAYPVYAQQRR
T3 sequence (P48736 whole entry, species assumed): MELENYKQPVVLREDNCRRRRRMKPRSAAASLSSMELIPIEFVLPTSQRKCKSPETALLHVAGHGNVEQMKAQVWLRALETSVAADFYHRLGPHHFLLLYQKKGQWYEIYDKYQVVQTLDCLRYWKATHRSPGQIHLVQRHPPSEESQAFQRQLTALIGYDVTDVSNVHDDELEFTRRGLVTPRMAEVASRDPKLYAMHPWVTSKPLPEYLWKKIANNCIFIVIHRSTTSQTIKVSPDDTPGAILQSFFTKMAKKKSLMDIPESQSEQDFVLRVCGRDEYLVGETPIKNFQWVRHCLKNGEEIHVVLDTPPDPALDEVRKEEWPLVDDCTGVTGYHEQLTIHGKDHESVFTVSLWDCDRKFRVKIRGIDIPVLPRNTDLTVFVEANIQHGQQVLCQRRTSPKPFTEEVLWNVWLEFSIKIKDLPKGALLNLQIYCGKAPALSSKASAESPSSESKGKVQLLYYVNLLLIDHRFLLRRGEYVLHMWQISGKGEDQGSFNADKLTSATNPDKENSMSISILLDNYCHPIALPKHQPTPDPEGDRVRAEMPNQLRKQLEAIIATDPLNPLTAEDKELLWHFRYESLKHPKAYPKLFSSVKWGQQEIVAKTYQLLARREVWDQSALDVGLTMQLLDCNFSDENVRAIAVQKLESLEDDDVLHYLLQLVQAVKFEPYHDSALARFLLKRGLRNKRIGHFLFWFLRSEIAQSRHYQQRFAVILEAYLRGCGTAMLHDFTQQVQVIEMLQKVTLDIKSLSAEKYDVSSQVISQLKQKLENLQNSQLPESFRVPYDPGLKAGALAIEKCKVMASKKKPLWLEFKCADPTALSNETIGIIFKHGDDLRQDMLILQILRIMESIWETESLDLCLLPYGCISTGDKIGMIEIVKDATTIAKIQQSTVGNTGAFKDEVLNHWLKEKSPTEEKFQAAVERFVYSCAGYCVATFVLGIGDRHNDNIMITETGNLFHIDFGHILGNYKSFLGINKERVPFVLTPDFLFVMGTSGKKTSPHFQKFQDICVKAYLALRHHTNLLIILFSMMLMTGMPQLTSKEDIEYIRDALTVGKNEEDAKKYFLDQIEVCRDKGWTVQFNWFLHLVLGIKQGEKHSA
T5 sequence (P42338 whole entry, species assumed): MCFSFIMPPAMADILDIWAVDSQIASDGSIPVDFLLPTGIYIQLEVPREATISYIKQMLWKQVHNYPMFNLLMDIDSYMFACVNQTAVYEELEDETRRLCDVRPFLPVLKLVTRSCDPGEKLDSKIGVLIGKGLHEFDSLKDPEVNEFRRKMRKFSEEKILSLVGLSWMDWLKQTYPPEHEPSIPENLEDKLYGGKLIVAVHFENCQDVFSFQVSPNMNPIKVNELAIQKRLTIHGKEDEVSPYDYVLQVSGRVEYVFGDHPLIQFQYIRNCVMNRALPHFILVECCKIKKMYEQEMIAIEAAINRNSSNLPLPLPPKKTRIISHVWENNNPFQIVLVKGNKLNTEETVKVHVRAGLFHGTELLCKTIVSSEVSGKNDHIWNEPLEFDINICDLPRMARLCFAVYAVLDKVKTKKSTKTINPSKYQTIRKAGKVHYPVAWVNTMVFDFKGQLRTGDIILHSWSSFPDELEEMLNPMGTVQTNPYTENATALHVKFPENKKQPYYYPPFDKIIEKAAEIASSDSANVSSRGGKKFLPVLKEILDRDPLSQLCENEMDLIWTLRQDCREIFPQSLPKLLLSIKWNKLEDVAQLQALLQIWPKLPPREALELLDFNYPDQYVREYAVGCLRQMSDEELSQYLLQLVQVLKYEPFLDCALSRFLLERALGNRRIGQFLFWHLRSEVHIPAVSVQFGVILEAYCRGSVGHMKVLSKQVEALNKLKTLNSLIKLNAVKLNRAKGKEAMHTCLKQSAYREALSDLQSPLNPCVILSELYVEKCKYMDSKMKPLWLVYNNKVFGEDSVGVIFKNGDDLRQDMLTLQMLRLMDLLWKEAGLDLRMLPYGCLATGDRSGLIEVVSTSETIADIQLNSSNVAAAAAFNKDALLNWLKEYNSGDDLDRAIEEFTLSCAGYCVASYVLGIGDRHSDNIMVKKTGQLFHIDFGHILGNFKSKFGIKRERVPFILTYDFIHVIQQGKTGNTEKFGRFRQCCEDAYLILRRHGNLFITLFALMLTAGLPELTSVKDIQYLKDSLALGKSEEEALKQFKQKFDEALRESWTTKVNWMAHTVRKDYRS
T5 sequence (P27986 whole entry partner, species assumed): as the sequence (P27986 whole entry partner, species assumed) above
T2 sequence (Q9JHG7 whole entry): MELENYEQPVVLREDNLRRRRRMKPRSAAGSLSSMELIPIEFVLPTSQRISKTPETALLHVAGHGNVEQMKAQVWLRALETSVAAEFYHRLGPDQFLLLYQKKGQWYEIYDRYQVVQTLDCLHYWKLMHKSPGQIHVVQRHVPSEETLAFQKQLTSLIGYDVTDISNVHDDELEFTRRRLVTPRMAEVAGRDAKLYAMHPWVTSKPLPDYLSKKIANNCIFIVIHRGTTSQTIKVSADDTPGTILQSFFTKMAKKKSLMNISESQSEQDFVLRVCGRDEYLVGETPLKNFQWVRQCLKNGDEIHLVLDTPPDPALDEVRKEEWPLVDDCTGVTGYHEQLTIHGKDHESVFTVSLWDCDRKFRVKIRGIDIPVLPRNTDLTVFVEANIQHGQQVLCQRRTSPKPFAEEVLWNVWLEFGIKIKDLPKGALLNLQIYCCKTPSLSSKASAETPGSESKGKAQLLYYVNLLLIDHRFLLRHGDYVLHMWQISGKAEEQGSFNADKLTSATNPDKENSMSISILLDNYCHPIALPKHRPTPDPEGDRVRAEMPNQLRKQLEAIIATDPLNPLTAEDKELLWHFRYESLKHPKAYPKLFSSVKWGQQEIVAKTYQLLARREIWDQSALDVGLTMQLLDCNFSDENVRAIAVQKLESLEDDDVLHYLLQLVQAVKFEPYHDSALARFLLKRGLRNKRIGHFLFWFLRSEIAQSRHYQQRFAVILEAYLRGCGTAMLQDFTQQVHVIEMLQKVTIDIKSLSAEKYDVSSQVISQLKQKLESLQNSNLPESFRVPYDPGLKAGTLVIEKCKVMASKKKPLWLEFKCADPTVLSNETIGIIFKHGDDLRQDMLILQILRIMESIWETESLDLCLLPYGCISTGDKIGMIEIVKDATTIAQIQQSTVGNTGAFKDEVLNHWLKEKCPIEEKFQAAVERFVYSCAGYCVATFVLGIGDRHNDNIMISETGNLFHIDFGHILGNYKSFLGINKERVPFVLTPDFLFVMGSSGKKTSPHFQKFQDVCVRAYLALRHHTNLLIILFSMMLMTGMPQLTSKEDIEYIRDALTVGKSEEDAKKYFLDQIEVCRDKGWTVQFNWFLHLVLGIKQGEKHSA

In the case of `O=c1c2c(Cl)ccn2nc([C@@H]2CCCN2c2ncnc3[nH]cnc23)n1-c1ccccn1` [Compound 311], the pIC50 in assay [1] was more than 9.30; in assay [2] it was 7.27.
For the compound `N#Cc1c[nH]c2ncnc(N3CCC[C@H]3c3nn4cccc4c(=O)n3-c3ccccc3)c12` [Compound 1, (S)-4-(2-(4-oxo-3-phenyl-3,4-dihydropyrrolo[1,2-f][1,2,4]triazin-2-yl)pyrrolidin-1-yl)-7H-pyrrolo[2,3-d]pyrimidine-5-carbonitrile], in assay [1], the “PI3Kδ IH % @ 1 uM” value was found to be 97.8% and the negative-log IC50 (pIC50) is 8.70. The “PI3Kγ IH % @ 1 uM” value in assay [3] was determined as 91.9%. Besides, the “PI3Kα IH % @ 1 uM” value in assay [4] was determined as 50.8%. Also, the “PI3Kβ IH % @ 1 uM” value in assay [5] stood at 47.7%.
With `CC(=O)c1c[nH]c2ncnc(N3C[C@@H](F)C[C@H]3c3nn4ccc(Cl)c4c(=O)n3-c3ccccc3)c12` [Compound 268], the pIC50 in assay [2] was 7.72. Moreover, the “PI3Kγ IH % @ 1 uM” value in assay [3] is 100%.
As to `N#Cc1c[nH]c2ncnc(N3CCC[C@H]3c3nn4ccc(C#N)c4c(=O)n3-c3ccccc3)c12` [Compound 113], in assay [1], the “PI3Kδ IH % @ 1 uM” value stood at 99.3% and the pIC50 was 8.22. Moreover, in assay [3], the “PI3Kγ IH % @ 1 uM” value is given as more than 100% and the pIC50 was 7.37. For the same compound, the “PI3Kα IH % @ 1 uM” value in assay [4] came out at 28.3%. In addition, in assay [5], the “PI3Kβ IH % @ 1 uM” value stood at 74.9% and the negative-log IC50 (pIC50) is 6.61.
Turning to `CC(Nc1ncnc2[nH]cc(F)c12)c1cc2ncc(Cl)n2c(=O)n1-c1ccccc1` (single isomer, unassigned) [Compound 450], the pIC50 in assay [1] is 9.40; in assay [2], 7.14; in assay [3], 7.77; in assay [5] it was 7.38.
The like results for `CC(Nc1nc(N)nc2c1C(=O)CCN2)c1cn2ccc(F)c2c(=O)n1-c1ccccc1` (single isomer, unassigned) [Compound 407] were, in that order, 9.00, 7.20, 8.70 and 7.17.
For the compound `O=c1c2c(Cl)ccn2nc([C@@H]2C[C@H](F)CN2c2ncnc3[nH]cnc23)n1-c1cccc(F)c1` [Compound 214], the pIC50 in assay [2] is 7.82.
Consider `CC(=O)c1c[nH]c2ncnc(N3CCC[C@H]3c3nn4ccc(F)c4c(=O)n3-c3ccccc3)c12` [Compound 218], for which, in assay [2], the negative logarithm of the IC50 (pIC50) was 7.38.
As for `N#Cc1c[nH]c2ncnc(N3CCCC3c3cn4ccc(Cl)c4c(=O)n3-c3ccccc3)c12` (centres unmarked) [Compound 364], the pIC50 in assay [2] was 8.22.
Regarding `N#Cc1c(N)ncnc1N1CCC[C@H]1c1nn2cccc2c(=O)n1-c1ccccc1` [Compound 5], the “PI3Kδ IH % @ 1 uM” value in assay [1] came out at 98.3%. Moreover, in assay [3], the “PI3Kγ IH % @ 1 uM” value came to 69.6%. Further, the “PI3Kα IH % @ 1 uM” value in assay [4] was determined as 32.5%. Also, in assay [5], the “PI3Kβ IH % @ 1 uM” value was found to be 46.4%.
With `Cc1nc(N)nc(N2CC[C@H]2c2nn3ccc(Cl)c3c(=O)n2-c2ccccc2)c1C#N` [Compound 283], the pIC50 in assay [2] is 8.52.
On to `C=Cc1c[nH]c2ncnc(N3CCC[C@H]3c3nn4cccc4c(=O)n3-c3ccccc3)c12` [Compound 98, (S)-3-phenyl-2-(1-(5-vinyl-7H-pyrrolo[2,3-d]pyrimidin-4-yl)pyrrolidin-2-yl)pyrrolo[1,2-f][1,2,4]triazin-4(3H)-one], for which the “PI3Kδ IH % @ 1 uM” value in assay [1] was 88.4%. Also, in assay [3], the “PI3Kγ IH % @ 1 uM” value is listed as 87.9% and the pIC50 was 7.00. The “PI3Kα IH % @ 1 uM” value in assay [4] is recorded as 16.2%. The “PI3Kβ IH % @ 1 uM” value in assay [5] worked out at 15.2%.
With `CC(=O)c1c[nH]c2ncnc(NC(C)c3cn4ccc(Cl)c4c(=O)n3-c3ccccc3)c12` (centres unmarked) [Compound 272], in assay [2], the pIC50 is 7.44.
Still for that read-out and setting: for `CC(=O)c1cnc(N)nc1N1CC[C@H]1c1nn2ccc(F)c2c(=O)n1-c1ccccc1` [Compound 323] the value was 7.10; for `CC(=O)c1cnc(N)nc1N1CC[C@H]1c1nn2ccc(Cl)c2c(=O)n1-c1ccccc1` [Compound 299], 8.22.
Consider `NC(=O)c1c[nH]c2ncnc(N3CCC[C@H]3c3nn4cccc4c(=O)n3-c3ccccc3)c12` [Compound 94, (S)-4-(2-(4-oxo-3-phenyl-3,4-dihydropyrrolo[1,2-f][1,2,4]triazin-2-yl)pyrrolidin-1-yl)-7H-pyrrolo[2,3-d]pyrimidine-5-carboxamide], for which the “PI3Kδ IH % @ 1 uM” value in assay [1] is reported as more than 100%. In assay [3], the “PI3Kγ IH % @ 1 uM” value was more than 100% and the negative logarithm of the IC50 (pIC50) is 7.66. Also, in assay [4], the “PI3Kα IH % @ 1 uM” value stood at 36.3%. Moreover, the “PI3Kβ IH % @ 1 uM” value in assay [5] worked out at 53.5%.
As to `O=c1c2cccn2nc([C@@H]2CCCN2c2ncnc3[nH]cc(Cl)c23)n1-c1ccccc1` [Compound 3], in assay [1], the “PI3Kδ IH % @ 1 uM” value was more than 100% and the pIC50 was 7.82. For the same compound, in assay [3], the “PI3Kγ IH % @ 1 uM” value is recorded as 82.5% and the pIC50 is 6.44. Besides, the “PI3Kα IH % @ 1 uM” value in assay [4] was determined as 12.0%. Further, the “PI3Kβ IH % @ 1 uM” value in assay [5] was found to be 17.8%.
In the case of `CC(Nc1nc(N)ncc1C#N)c1cn2ccc(F)c2c(=O)n1-c1ccccc1` (single isomer, unassigned) [Compound 449], the pIC50 is 9.00 in assay [1], 7.06 in assay [2], 8.40 in assay [3] and 7.35 in assay [5].
As for `CC(=O)c1cnc(N)nc1N1CC[C@H]1c1nn2ccc(Cl)c2c(=O)n1-c1ccc(F)cc1` [Compound 302], the pIC50 in assay [2] was 7.37.
On the same count and under the same terms, under `Nc1nc2c(c(N3CC[C@H]3c3nn4ccc(Cl)c4c(=O)n3-c3ccccc3)n1)C(=O)CCN2` [Compound 241] stands 7.66.
On to `N#Cc1cnc(N)nc1N1CC[C@H]1c1nn2ccc(Cl)c2c(=O)n1-c1ccccc1` [Compound 212], for which, in assay [4] (read-out: PI3Kα IC50), the pIC50 is less than 6.00.
With `Nc1nc(N2CCC[C@H]2c2nn3cccc3c(=O)n2-c2ccccc2)c2nc[nH]c2n1` [Compound 2], in assay [1], the “PI3Kδ IH % @ 1 uM” value worked out at 98.2%. The “PI3Kγ IH % @ 1 uM” value in assay [3] is recorded as 98.8%. For the same compound, the “PI3Kα IH % @ 1 uM” value in assay [4] came to 5.1%. Further, in assay [5], the “PI3Kβ IH % @ 1 uM” value worked out at 38.0%.
For `Nc1ncc(C(=O)C(F)(F)F)c(N2CC[C@H]2c2nn3ccc(Cl)c3c(=O)n2-c2ccccc2)n1` [Compound 325], the negative logarithm of the IC50 (pIC50) was 7.10 in assay [2] and less than 6.00 in assay [5].
In the case of `CC(Nc1ncnc2[nH]cc(F)c12)c1cn2ccc(Cl)c2c(=O)n1-c1ccccc1` (centres unmarked) [Compound 270], the pIC50 in assay [2] was 7.19.
On the same count and under the same terms, for `CC(=O)c1cnc(N)nc1NC(C)c1cc2ncc(Cl)n2c(=O)n1-c1ccccc1` (centres unmarked) [Compound 288] the value was 7.37.
With `C[C@H]1CCN(c2nc(N)ncc2C#N)C1c1nn2ccc(Cl)c2c(=O)n1-c1ccccc1` (some centres unmarked) [Compound 236], the pIC50 was 8.70 in assay [1], 7.34 in assay [2], 8.40 in assay [3] and 7.09 in assay [5].
As for `N#Cc1cnc(N)nc1N1C[C@@H](C#N)C[C@H]1c1nn2ccc(Cl)c2c(=O)n1-c1ccccc1` [Compound 351], the pIC50 in assay [2] is 8.30.

The pIC50 is the negative decadic logarithm of the IC50, by convention in mol/L.
